Structures can show the parent of a compound that is named as a salt. Where two headings read alike, the source gives them in different places.
Molecular target: Human DGAT2 (hDGAT2) (Homo sapiens (Human), UniProt Q96PD7)
Assay: In vitro DGAT2 assay, IC50 determination with hDGAT2 membrane fraction
Assay type: biochemical
Settings: read-out: DGAT2 IC50
Summary of the method: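 CHAPS-solubilized membrane fraction of FLAG-tagged hDGAT2 from baculovirus-infected SF9 cells (0.01 mg/mL) in 100 mM Hepes-NaOH pH 7.4, 20 mM MgCl2, 200 nM methyl arachidonyl fluorophosphonate; compounds pre-incubated 20 min with 0.04% BSA. Reaction 40 min at room temperature, stopped with H3PO4. [^14C]tridecanoylglycerol in organic phase counted; 11-point geometric mean IC50.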

[1] = geometric mean, background for complete inhibition of DGAT2 obtained with 50 μM (1R,2R)-2-({3′-Fluoro-4′-[(6-fluoro-1,3-benzothiazol-2-yl)amino]-1,1′-biphenyl-4-yl}carbonyl)cyclopentanecarboxylic acid

Human DGAT2 (hDGAT2), sequence (Q96PD7 whole entry): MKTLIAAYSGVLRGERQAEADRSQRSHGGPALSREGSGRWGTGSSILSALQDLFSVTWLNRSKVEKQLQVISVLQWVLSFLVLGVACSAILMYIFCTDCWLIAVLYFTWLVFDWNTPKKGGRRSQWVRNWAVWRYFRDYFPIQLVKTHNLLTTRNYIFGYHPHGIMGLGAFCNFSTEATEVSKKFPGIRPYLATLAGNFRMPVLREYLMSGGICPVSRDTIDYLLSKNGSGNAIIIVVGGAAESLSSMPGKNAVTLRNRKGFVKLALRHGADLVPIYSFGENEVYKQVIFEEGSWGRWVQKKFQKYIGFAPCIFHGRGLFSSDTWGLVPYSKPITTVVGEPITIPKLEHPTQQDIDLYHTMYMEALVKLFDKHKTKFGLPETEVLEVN

| SMILES | IC50 [1] [µM] | also measured |
| --- | --- | --- |
| C[C@H]1CO[C@@H](c2ccccn2)CN1c1ccc2nc(-c3cccc(Cl)c3)[nH]c2n1 [Example 177, (2R,5S)-4-(2-(3-Chlorophenyl)-3H-imidazo[4,5-b]pyridin-5-yl)-5-methyl-2-(pyridin-2-yl)morpholine] | 0.953 |  |
| CS(=O)(=O)c1cncc(-c2nc3ccc(N4CCC[C@@H](C(=O)N5CCCC5)C4)nc3[nH]2)c1 [Example 179, (R)-(1-(2-(5-(Methylsulfonyl)pyridin-3-yl)-3H-imidazo[4,5-b]pyridin-5-yl)piperidin-3-yl)(pyrrolidin-1-yl)methanone] | 0.512 |  |
| C[C@@H]1CCN(c2ccc3nc(-c4cccc(OC(F)F)c4)[nH]c3n2)C[C@@H]1C(=O)N(C)C [Example 180, (3R,4R)-1-(2-(3-(Difluoromethoxy)phenyl)-3H-imidazo[4,5-b]pyridin-5-yl)-N,N,4-trimethylpiperidine-3-carboxamide] | 0.434 |  |
| C[C@H]1CCN(c2ccc3nc(-c4cccc(OC(F)F)c4)[nH]c3n2)C[C@H]1C(=O)N(C)C [Example 181, (3S,4S)-1-(2-(3-(difluoromethoxy)phenyl)-3H-imidazo[4,5-b]pyridin-5-yl)-N,N,4-trimethylpiperidine-3-carboxamide] |  | IC50: 17.4 µM |
| O=C([C@@H]1CCCN(c2ccc3nc(-c4cccc(C5CC5)n4)[nH]c3n2)C1)N1CCCC1 [Example 182, (R)-(1-(2-(6-Cyclopropylpyridin-2-yl)-3H-imidazo[4,5-b]pyridin-5-yl)piperidin-3-yl)(pyrrolidin-1-yl)methanone] | 0.00603 |  |
| O=C([C@@H]1CCCN(c2ccc3nc(-c4cncc(C5CC5)c4)[nH]c3n2)C1)N1CCCC1 [Example 183, (R)-(1-(2-(5-Cyclopropylpyridin-3-yl)-3H-imidazo[4,5-b]pyridin-5-yl)piperidin-3-yl)(pyrrolidin-1-yl)methanone] | 0.0375 |  |
| O=C([C@@H]1CCCN(c2ccc3nc(-c4cccc(C5CC5)n4)[nH]c3n2)C1)N1CCC(F)(F)C1 [Example 184, (R)-(1-(2-(6-Cyclopropylpyridin-2-yl)-3H-imidazo[4,5-b]pyridin-5-yl)piperidin-3-yl)(3,3-difluoropyrrolidin-1-yl)methanone] | 0.0152 |  |
| CCN(C)C(=O)[C@@H]1CCCN(c2ccc3nc(-c4ccnc(C5CC5)n4)[nH]c3n2)C1 [Example 185, (R)-1-(2-(2-Cyclopropylpyrimidin-4-yl)-3H-imidazo[4,5-b]pyridin-5-yl)-N-ethyl-N-methylpiperidine-3-carboxamide] | 0.231 |  |
| O=C([C@H]1CN(c2ccc3nc(-c4cccc(C5CC5)n4)[nH]c3n2)CCO1)N1CCOCC1 [Example 186, (R)-(4-(2-(6-Cyclopropylpyridin-2-yl)-3H-imidazo[4,5-b]pyridin-5-yl)morpholin-2-yl)(morpholino)methanone] | 0.162 |  |
| O=C([C@@H]1CCCN(c2ncc3nc(-c4cccc(C(F)(F)F)n4)[nH]c3n2)C1)N1CCCC1 [Example 187, (R)-Pyrrolidin-1-yl(1-(8-(6-(trifluoromethyl)pyridin-2-yl)-9H-purin-2-yl)piperidin-3-yl)methanone] | 0.0105 |  |
| CC(C)(c1nc2ccc(N3CCC[C@@H](C(=O)N4CCCC4)C3)nc2[nH]1)n1cc(Cl)cn1 [Example 188] | 0.0314 |  |
| CSc1cnn(C2(c3nc4ccc(N5CCC[C@@H](C(=O)N6CCCC6)C5)nc4[nH]3)CC2)c1 [Example 189, (R)-(1-(2-(1-(4-(Methylthio)-1H-pyrazol-1-yl)cyclopropyl)-3H-imidazo[4,5-b]pyridin-5-yl)piperidin-3-yl)(pyrrolidin-1-yl)methanone] | 0.0341 |  |
| COc1cnn(C2(c3nc4ccc(N5CCC[C@@H](C(=O)N6CCCC6)C5)nc4[nH]3)CC2)c1 [Example 194, (R)-(1-(2-(1-(4-Methoxy-1H-pyrazol-1-yl)cyclopropyl)-3H-imidazo[4,5-b]pyridin-5-yl)piperidin-3-yl)(pyrrolidin-1-yl)methanone] | 0.101 |  |
| O=C([C@@H]1CCCN(c2ccc3nc(C4(c5coc(C6CC6)n5)CC4)[nH]c3n2)C1)N1CCCC1 [Example 195, (R)-(1-(2-(1-(2-cyclopropyloxazol-4-yl)cyclopropyl)-3H-imidazo[4,5-b]pyridin-5-yl)piperidin-3-yl)(pyrrolidin-1-yl)methanone] | 0.142 |  |
| C[C@@H](c1nc2ccc(N3CCC[C@@H](C(=O)N4CCCC4)C3)nc2[nH]1)n1cc(Cl)cn1 [Example 196-B, ((R)-1-(2-((S)-1-(4-Chloro-1H-pyrazol-1-yl)ethyl)-3H-imidazo[4,5-b]pyridin-5-yl)piperidin-3-yl)(pyrrolidin-1-yl)methanone hydrochloride] |  | IC50 (geometric mean, background for complete inhibition of DGAT2 obtained with 50 μM (1R,2R)-2-({3′-Fluoro-4′-[(6-fluoro-1,3-benzothiazol-2-yl)amino]-1,1′-biphenyl-4-yl}carbonyl)cyclopentanecarboxylic acid, hydrochloride): 0.0385 µM |
| O=C([C@@H]1CCCN(c2ccc3nc(C4(n5cc(Cl)cn5)CC4)[nH]c3n2)C1)N1CC(F)(F)C1 [Example 200, (R)-(1-(2-(1-(4-Chloro-1H-pyrazol-1-yl)cyclopropyl)-3H-imidazo[4,5-b]pyridin-5-yl)piperidin-3-yl)(3,3-difluoroazetidin-1-yl)methanone] | 0.0742 |  |
| C[C@@H]1CCCN1C(=O)[C@@H]1CCCN(c2ccc3nc(C4(n5cc(Cl)cn5)CC4)[nH]c3n2)C1 [Example 201, ((R)-1-(2-(1-(4-Chloro-1H-pyrazol-1-yl)cyclopropyl)-3H-imidazo[4,5-b]pyridin-5-yl)piperidin-3-yl)((R)-2-methylpyrrolidin-1-yl)methanone] | 0.091 |  |
| C[C@H]1CCCN1C(=O)[C@@H]1CCCN(c2ccc3nc(C4(n5cc(Cl)cn5)CC4)[nH]c3n2)C1 [Example 202, ((R)-1-(2-(1-(4-Chloro-1H-pyrazol-1-yl)cyclopropyl)-3H-imidazo[4,5-b]pyridin-5-yl)piperidin-3-yl)((S)-2-methylpyrrolidin-1-yl)methanone] | 0.321 |  |
| O=C([C@@H]1CCCN(c2ccc3nc(C4(c5cnccn5)CC4)[nH]c3n2)C1)N1CCCC1 [Example 203, (R)-(1-(2-(1-(Pyrazin-2-yl)cyclopropyl)-3H-imidazo[4,5-b]pyridin-5-yl)piperidin-3-yl)(pyrrolidin-1-yl)methanone] | 0.176 |  |
| O=C([C@@H]1CCCN(c2ccc3nc(C4(c5ncccn5)CC4)[nH]c3n2)C1)N1CCCC1 [Example 204, (R)-(1-(2-(1-(Pyrimidin-2-yl)cyclopropyl)-3H-imidazo[4,5-b]pyridin-5-yl)piperidin-3-yl)(pyrrolidin-1-yl)methanone] | 0.656 |  |
| O=C([C@@H]1CCCN(c2ccc3nc(C4(n5cc(Cl)cn5)CC4)[nH]c3n2)C1)N1CCC1 [Example 205, (R)-Azetidin-1-yl(1-(2-(1-(4-chloro-1H-pyrazol-1-yl)cyclopropyl)-3H-imidazo[4,5-b]pyridin-5-yl)piperidin-3-yl)methanone] | 0.188 |  |
| O=C([C@@H]1CCCN(c2ccc3nc(C4(n5cc(Cl)cn5)CC4)[nH]c3n2)C1)N1CCOCC1 [Example 206, (R)-(1-(2-(1-(4-Chloro-1H-pyrazol-1-yl)cyclopropyl)-3H-imidazo[4,5-b]pyridin-5-yl)piperidin-3-yl)(morpholino)methanone] | 0.246 |  |
| C[C@@H]1CCN(c2ncc3nc(C4(n5cccn5)CC4)[nH]c3n2)C[C@@H]1C(=O)N1CCCC1 [Example 207, ((3R,4R)-1-(8-(1-(1H-Pyrazol-1-yl)cyclopropyl)-9H-purin-2-yl)-4-methylpiperidin-3-yl)(pyrrolidin-1-yl)methanone] | 0.702 |  |
